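Interpolation was linear, between the two tested concentrations surrounding the appropriate level; five concentrations were tested over 48 hours in 96-well plates. GI50: concentration for 50% inhibition of growth.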 Activity calls are given as the source filed them. Cut-off read from the data, not from the text of the source: active = GI50 up to about 1.1 µM and inactive = higher.
Key:
Test in all cases: DTP human tumour cell line panel, 48 h
786-0 = test system: 786-0
A498 = test system: A498
A549 = test system: A549
ACHN = test system: ACHN
CAKI-1 = test system: CAKI-1
CCRF-CEM = test system: CCRF-CEM
COLO 205 = test system: COLO 205
DLD-1 = test system: DLD-1
DMS-114 = test system: DMS-114
DMS-273 = test system: DMS-273
EKVX = test system: EKVX
HCC 2998 = test system: HCC 2998
HCT-116 = test system: HCT-116
HCT-15 = test system: HCT-15
HL-60 = test system: HL-60
HOP-18 = test system: HOP-18
HOP-62 = test system: HOP-62
HOP-92 = test system: HOP-92
HT-29 = test system: HT-29
IGROV-1 = test system: IGROV-1
K562 = test system: K562
KM-20L2 = test system: KM-20L2
KM12 = test system: KM12
LOX IMVI = test system: LOX IMVI
LXFL 529 = test system: LXFL 529
M14 = test system: M14
M19-MEL = test system: M19-MEL
MOLT-4 = test system: MOLT-4
Malme-3M = test system: Malme-3M
NCI-H226 = test system: NCI-H226
NCI-H23 = test system: NCI-H23
NCI-H460 = test system: NCI-H460
NCI-H522 = test system: NCI-H522
OVCAR-3 = test system: OVCAR-3
OVCAR-4 = test system: OVCAR-4
OVCAR-5 = test system: OVCAR-5
OVCAR-8 = test system: OVCAR-8
RPMI-8226 = test system: RPMI-8226
RXF 393 = test system: RXF 393
SF-268 = test system: SF-268
SF-295 = test system: SF-295
SF-539 = test system: SF-539
SK-MEL-28 = test system: SK-MEL-28
SK-MEL-2 = test system: SK-MEL-2
SK-MEL-5 = test system: SK-MEL-5
SK-OV-3 = test system: SK-OV-3
SN12C = test system: SN12C
SNB-19 = test system: SNB-19
SNB-75 = test system: SNB-75
SNB-78 = test system: SNB-78
SR = test system: SR
SW-620 = test system: SW-620
TK-10 = test system: TK-10
U-251 = test system: U-251
UACC-257 = test system: UACC-257
UACC-62 = test system: UACC-62
UO-31 = test system: UO-31
XF498 = test system: XF498

`Oc1ccc2c3c1OC1C(=NN=C4CCC5(O)C6Cc7ccc(O)c8c7C5(CCN6CC5CC5)C4O8)CCC4(O)C(C2)N(CC2CC2)CCC314` (centres undefined) was tested, and the GI50 (786-0) was 24.9 µM (inactive), the GI50 (A498) was > 42.8 µM (inactive) and the GI50 (A549) was 20.5 µM (inactive). For the same compound, the GI50 (ACHN) was > 100 µM (inactive), the GI50 (CAKI-1) was > 100 µM (inactive) and the GI50 (CCRF-CEM) was 22.9 µM (inactive). For the same compound, the GI50 (COLO 205) was 19.4 µM (inactive), the GI50 (DLD-1) was 46 µM (inactive) and the GI50 (DMS-114) was 21.6 µM (inactive). For the same compound, the GI50 (DMS-273) was 24.9 µM (inactive), the GI50 (EKVX) was 32.4 µM (inactive) and the GI50 (HCC 2998) was 21.5 µM (inactive). For the same compound, the GI50 (HCT-116) was 16.6 µM (inactive), the GI50 (HCT-15) was over 100 µM and the GI50 (HL-60) was 16.4 µM (inactive). For the same compound, the GI50 (HOP-18) was > 100 µM (inactive), the GI50 (HOP-62) was 30.3 µM (inactive) and the GI50 (HOP-92) was 21.1 µM (inactive). For the same compound, the GI50 (HT-29) was 17.1 µM (inactive), the GI50 (IGROV-1) was > 100 µM (inactive) and the GI50 (K562) was 17.2 µM (inactive). For the same compound, the GI50 (KM-20L2) was 20.2 µM (inactive), the GI50 (KM12) was 19.8 µM (inactive) and the GI50 (LOX IMVI) was 20 µM (inactive). For the same compound, the GI50 (LXFL 529) was 20.8 µM (inactive), the GI50 (M14) was 18.3 µM (inactive) and the GI50 (M19-MEL) was 21.7 µM (inactive). The GI50 (MOLT-4) was 23.7 µM (inactive), the GI50 (Malme-3M) was 19.8 µM (inactive) and the GI50 (NCI-H226) was > 100 µM (inactive). For the same compound, the GI50 (NCI-H23) was > 57.5 µM (inactive), the GI50 (NCI-H460) was 21.6 µM (inactive) and the GI50 (NCI-H522) was 21.4 µM (inactive). For the same compound, the GI50 (OVCAR-3) was 18.5 µM (inactive), the GI50 (OVCAR-4) was 25.6 µM (inactive) and the GI50 (OVCAR-5) was > 100 µM (inactive). For the same compound, the GI50 (OVCAR-8) was 28.5 µM (inactive), the GI50 (RPMI-8226) was 28.8 µM (inactive) and the GI50 (RXF 393) was 40 µM (inactive). For the same compound, the GI50 (SF-268) was > 50.4 µM (inactive), the GI50 (SF-295) was 17 µM (inactive) and the GI50 (SF-539) was 27.1 µM (inactive). For the same compound, the GI50 (SK-MEL-28) was 21.9 µM (inactive), the GI50 (SK-MEL-2) was 13.9 µM (inactive) and the GI50 (SK-MEL-5) was 19 µM (inactive). For the same compound, the GI50 (SK-OV-3) was > 51.3 µM (inactive), the GI50 (SN12C) was > 41.3 µM (inactive) and the GI50 (SNB-19) was 52.7 µM (inactive). For the same compound, the GI50 (SNB-75) was 41.6 µM (inactive), the GI50 (SNB-78) was 62.5 µM (inactive) and the GI50 (SR) was 26.7 µM (inactive). The GI50 (SW-620) was 20.8 µM (inactive), the GI50 (TK-10) was > 46.2 µM (inactive) and the GI50 (U-251) was 17.7 µM (inactive). The GI50 (UACC-257) was 20.4 µM (inactive), the GI50 (UACC-62) was 20.5 µM (inactive) and the GI50 (UO-31) was > 100 µM (inactive). The GI50 (XF498) was 19 µM (inactive).

`O=C1CCCC/C(=C/c2ccccc2)N1` was tested, and the GI50 (786-0) was > 100 µM (inactive), the GI50 (A498) was > 100 µM (inactive) and the GI50 (A549) was > 100 µM (inactive). For the same compound, the GI50 (ACHN) was > 100 µM (inactive), the GI50 (CAKI-1) was > 100 µM (inactive) and the GI50 (CCRF-CEM) was > 100 µM (inactive). For the same compound, the GI50 (COLO 205) was > 100 µM (inactive), the GI50 (DLD-1) was > 100 µM (inactive) and the GI50 (DMS-114) was 50.4 µM (inactive). The GI50 (DMS-273) was > 100 µM (inactive), the GI50 (EKVX) was > 100 µM (inactive) and the GI50 (HCC 2998) was > 100 µM (inactive). For the same compound, the GI50 (HCT-116) was > 100 µM (inactive), the GI50 (HCT-15) was over 100 µM and the GI50 (HL-60) was > 100 µM (inactive). For the same compound, the GI50 (HOP-18) was > 100 µM (inactive), the GI50 (HOP-62) was > 100 µM (inactive) and the GI50 (HOP-92) was > 100 µM (inactive). The GI50 (HT-29) was > 100 µM (inactive), the GI50 (IGROV-1) was > 100 µM (inactive) and the GI50 (K562) was > 100 µM (inactive). The GI50 (KM-20L2) was > 100 µM (inactive), the GI50 (KM12) was > 100 µM (inactive) and the GI50 (LOX IMVI) was > 100 µM (inactive). For the same compound, the GI50 (LXFL 529) was > 100 µM (inactive), the GI50 (M14) was > 100 µM (inactive) and the GI50 (M19-MEL) was > 100 µM (inactive). The GI50 (MOLT-4) was > 100 µM (inactive), the GI50 (Malme-3M) was > 100 µM (inactive) and the GI50 (NCI-H226) was > 100 µM (inactive). The GI50 (NCI-H23) was > 100 µM (inactive), the GI50 (NCI-H460) was > 100 µM (inactive) and the GI50 (NCI-H522) was > 100 µM (inactive). The GI50 (OVCAR-3) was > 100 µM (inactive), the GI50 (OVCAR-4) was > 100 µM (inactive) and the GI50 (OVCAR-5) was > 100 µM (inactive). The GI50 (OVCAR-8) was > 100 µM (inactive), the GI50 (RPMI-8226) was > 100 µM (inactive) and the GI50 (RXF 393) was > 100 µM (inactive). The GI50 (SF-268) was > 100 µM (inactive), the GI50 (SF-295) was > 100 µM (inactive) and the GI50 (SF-539) was > 100 µM (inactive). The GI50 (SK-MEL-28) was > 100 µM (inactive), the GI50 (SK-MEL-2) was > 100 µM (inactive) and the GI50 (SK-OV-3) was > 100 µM (inactive). For the same compound, the GI50 (SN12C) was > 100 µM (inactive), the GI50 (SNB-75) was 56.6 µM (inactive) and the GI50 (SNB-78) was > 100 µM (inactive). For the same compound, the GI50 (SR) was > 100 µM (inactive), the GI50 (SW-620) was > 100 µM (inactive) and the GI50 (TK-10) was > 100 µM (inactive). For the same compound, the GI50 (U-251) was > 100 µM (inactive), the GI50 (UACC-257) was > 100 µM (inactive) and the GI50 (UACC-62) was > 100 µM (inactive). For the same compound, the GI50 (UO-31) was > 100 µM (inactive) and the GI50 (XF498) was > 100 µM (inactive).

— ChEMBL document CHEMBL1201862, “PubChem BioAssay data set” (2004)
